From US20080081041A1 (priority 2006, published 2008)
Like-named read-outs stand apart in the source and are kept apart here.

Key:
DU145 cells = experiment: DU145 cell killing, ATPlite assay (ATP production); assay type: cell-based, human; settings: for timecourse of cell killing / EC50 / effect on sensitivity / resistance of the cells to mitoxantrone: DU145 cells; for EC50: Homo sapiens, DU-145, read-out: EC50 values for killing by Mitoxantrone, CNTO 328 at 20 μg/mL where combined; for effect on sensitivity / resistance of the cells to mitoxantrone: 48 and 72 hour timepoints
Method: DU145 cells were established from a metastatic central nervous system lesion of androgen-independent prostate carcinoma (Stone, K. R. et al. 1978 Int J Cancer 21: 274-81). […] Thus, study of direct interactions of chemotherapy agents and IL6 modulators can be studied on prostate tumor cells in vitro.
DU145 cells were plated at 500 cells/well in a 96 well plate and allowed to adhere for several hours. Treatments were added and plates were incubated at 37° C. for either 24, 48, or 72 hours. […] CNTO 328 was tested at 20 μg/mL and IL-6 was tested at both 10 and 50 ng/mL. Plates were analyzed for ATP production using the ATPlite assay from Perkin Elmer.

[1] = tested on: DU-145 human prostate xenograft; experiment: DU-145 human prostate xenograft in nude mice, time to tumor volume of 1000 mm3; assay type: in vivo; settings: for % TGD (tumor growth delay): [(T-C)/C]×100, versus PBS Group 1; for tumor growth delay vs. control (in words): monotherapy versus Group 1; for T-C (difference between median TTE of treated versus control group): same dosing, versus PBS Group 1; for Median TTE: time to tumor volume 1000 mm3, CNTO328 10 mg/Kg i.p. biweekly, Mitoxantrone 0.75 mg/Kg i.v. once per D for 5 D, n=8
Source text: Nude mice were implanted subcutaneously with 1 mm3 fragments of DU-145 human prostate xenograft tissue. […] Dosing was initiated on Day 1 as follows: […] The study endpoint was the time taken for tumors to reach a volume of 1000 mm3 at which time each animal was euthanized. Days in Progress=56. Calculation using the TTE=time to endpoint are: T−C=difference between median TTE (days) of treated versus control group, TGD=tumor growth delay. % TGD=[(T-C)/C]×100. The Logrank test was used to analyze the significance of the differences between the TTE values of treated and control groups. Two-tailed statistical analyses were conducted at significance level P-0.05. Statistical Significance: ns=not significant, **=P<0.01 compared to group indicated.

metastatic HRPC = settings: docetaxel every 3 weeks; cited from earlier work
human prostate tumor = settings: human prostate tumor-bearing mice; cited from earlier work

Molecule | % TGD (tumor growth delay) [1] | tumor growth delay vs. control (in words) [1] | T-C (difference between median TTE of treated versus control group) [1] | Median TTE [1] | effect on sensitivity / resistance of the cells to mitoxantrone (DU145 cells) | also measured
O=C1c2c(O)ccc(O)c2C(=O)c2c(NCCNCCO)ccc(NCCNCCO)c21 [Mitoxantrone, 1,4-Dihydroxy-5,8-bis[[2-[(2-hydroxyethyl)amino]ethyl]amino]-9,10-anthracenedione] | 29% | no significant tumor growth delay | 6.2 days | 27.7 days | – | timecourse of cell killing (DU145 cells; 48 and 72 hours (FIG. 1)): greatest reduction in cell survival; timecourse of cell killing (DU145 cells; 24 hours (FIG. 1)): minimal cell death; EC50 (DU145 cells; 48 Hours): 0.023 µM; EC50 (DU145 cells; 72 Hours): 0.0108 µM; mean body weight nadir ([1]; day 10): −5%
CC(=O)O[C@@]12CO[C@@H]1C[C@H](O)[C@@]1(C)C(=O)[C@H](O)C3=C(C)[C@@H](OC(=O)[C@H](O)[C@@H](NC(=O)OC(C)(C)C)c4ccccc4)C[C@@](O)([C@@H](OC(=O)c4ccccc4)[C@H]21)C3(C)C [docetaxel] | – | – | – | – | – | improvement of survival over the reference M/P regimen (metastatic HRPC): 2-2.5 months
IL-6: 22-27 kDa secreted glycoprotein cytokine, added exogenously | – | – | – | – | did not increase resistance to the effect of mitoxantrone | –
CNTO 328: an anti-IL-6 monoclonal antibody, derived from the CLB-8 anti-IL-6 antibody (antibody, chains of the INN, looked up, V domains shown) VH: EVQLVESGGKLLKPGGSLKLSCAASGFTFSSFAMSWFRQSPEKRLEWVAEISSGGSYTYYPDTVTGRFTISRDNAKNTLYLEMSSLRSEDTAMYYCARGLWGYYALDYWGQGTSVTVSS VL: QIVLIQSPAIMSASPGEKVTMTCSASSSVSYMYWYQQKPGSSPRLLIYDTSNLASGVPVRFSGSGSGTSYSLTISRMEAEDAATYYCQQWSGYPYTFGGGTKLEIK | −21% | no significant tumor growth delay | -4.6 days | 16.9 days | does not significantly alter the sensitivity of the cells to mitoxantrone | proliferation of the DU145 cells (DU145 cells; agent alone (not shown)): ineffective at reducing proliferation; effect of monotherapy on tumor and survival (human prostate tumor): block conversion to androgen independent growth, induce tumor apoptosis, and prolong survival
